Laboratory results: US11957759B1, “Rapidly accelerated fibrosarcoma (RAF) degrading compounds and associated methods of use” (Arvinas Operations, Inc., priority 2022, dated 2024)

Experiments:
B-RAF G466V = target: T1, B-RAF G466V (Homo sapiens, UniProt P15056, G466V); test: Target protein degradation, assay D: T-Rex 293 cells, HA-BRAF_G466V, 384 well format; type: cell-based; settings: T-Rex 293 HA-BRAF_G466V cells, 24 hours, Examples 83-269; for DC50: Assay D; for Dmax: T-REx-293, Assay D
T1 construct: expressed in transfected cells; host or cells: T-Rex 293 cells (Invitrogen #R71007)
How it was run: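 Degradation measured by high-content imaging of anti-HA immunofluorescence in fixed T-Rex 293 cells carrying inducible HA-BRAF G466V (1 ng/mL doxycycline), after 24 h PROTAC exposure at 37 °C over 300 nM–5 pM (1:3, 11 points, 0.5% DMSO). Outputs DC50 and Dmax as % of control; nuclei counts against DMSO wells gauge toxicity.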

B-RAF V600E = target: T2, B-RAF V600E (Homo sapiens, UniProt P15056, V600E); test: Target protein degradation, assay C: T-Rex 293 cells, HA-BRAF_V600E, 384 well format; type: cell-based; settings: T-Rex 293 HA-BRAF_V600E cells, 24 hours, Examples 83-269; for DC50: Assay C; for Dmax: T-REx-293, Assay C
T2 construct: expressed in transfected cells; host or cells: T-Rex 293 cells (Invitrogen #R71007)
How it was run: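 After 24 h exposure to an 11-point 1:3 series (300 nM–5 pM, 0.5% DMSO), fixed T-Rex 293 cells carrying HA-BRAF V600E (induced with 1 ng/mL doxycycline) were stained anti-HA and imaged. DC50 and Dmax were derived from BRAF intensity relative to control, and cytotoxicity from nuclear counts.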

T2 sequence (P15056 whole entry V600E): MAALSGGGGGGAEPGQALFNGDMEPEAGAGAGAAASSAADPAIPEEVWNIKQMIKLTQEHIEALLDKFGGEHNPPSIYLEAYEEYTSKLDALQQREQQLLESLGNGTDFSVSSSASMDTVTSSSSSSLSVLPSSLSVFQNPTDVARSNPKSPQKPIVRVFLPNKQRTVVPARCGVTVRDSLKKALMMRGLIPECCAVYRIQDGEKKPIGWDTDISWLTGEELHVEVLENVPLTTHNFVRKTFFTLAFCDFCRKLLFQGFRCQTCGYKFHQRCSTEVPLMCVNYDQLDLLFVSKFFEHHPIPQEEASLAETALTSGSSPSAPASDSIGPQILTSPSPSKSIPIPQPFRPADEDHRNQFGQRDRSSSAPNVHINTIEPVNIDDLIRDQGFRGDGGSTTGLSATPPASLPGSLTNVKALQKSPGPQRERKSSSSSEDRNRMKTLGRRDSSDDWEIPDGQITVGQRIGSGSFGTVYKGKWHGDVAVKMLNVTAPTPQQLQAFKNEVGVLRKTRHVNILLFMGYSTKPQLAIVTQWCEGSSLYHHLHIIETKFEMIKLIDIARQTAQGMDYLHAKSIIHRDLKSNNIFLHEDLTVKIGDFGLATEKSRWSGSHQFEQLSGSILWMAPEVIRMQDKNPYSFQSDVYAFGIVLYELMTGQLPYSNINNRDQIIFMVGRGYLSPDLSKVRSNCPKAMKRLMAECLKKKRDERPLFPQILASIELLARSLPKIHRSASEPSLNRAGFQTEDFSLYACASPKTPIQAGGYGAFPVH
T1 sequence (P15056 whole entry G466V): as the sequence (P15056 whole entry V600E) above, with G466V, E600V counted along it

N#Cc1c(NS(=O)(=O)N2CC[C@@H](F)C2)ccc(F)c1Oc1ccc2ncn(-c3cccc(N4CCN(CC5CN(c6ccc7c(c6)CN([C@H]6CCC(=O)NC6=O)C7=O)C5)CC4)c3)c(=O)c2c1 [Example 254, (3R)-N-(2-cyano-3-{[3-(3-{4-[(1-{2-[(3S)-2,6-dioxopiperidin-3-yl]-1-oxo-2,3-dihydro-1H-isoindol-5-yl}azetidin-3-yl)methyl]piperazin-1-yl}phenyl)-4-oxo-3,4-dihydroquinazolin-6-yl]oxy}-4-fluorophenyl)-3-fluoropyrrolidine-1-sulfonamide]
DC50 (B-RAF G466V): 0.001 to 0.01 µM | Dmax (B-RAF G466V): ≥ 70% | DC50 (B-RAF V600E): 0.05 to 0.5 µM | Dmax (B-RAF V600E): 35 to 70%

N#Cc1c(NS(=O)(=O)N2CC[C@@H](F)C2)ccc(F)c1Oc1ccc2ncn(-c3cccc(C4CCN(CC5CN(c6ccc7c(c6)CN([C@H]6CCC(=O)NC6=O)C7=O)C5)CC4)c3)c(=O)c2c1 [Example 255, (3R)-N-(2-cyano-3-{[3-(3-{1-[(1-{2-[(3S)-2,6-dioxopiperidin-3-yl]-1-oxo-2,3-dihydro-1H-isoindol-5-yl}azetidin-3-yl)methyl]piperidin-4-yl}phenyl)-4-oxo-3,4-dihydroquinazolin-6-yl]oxy}-4-fluorophenyl)-3-fluoropyrrolidine-1-sulfonamide]
DC50 (B-RAF G466V): 0.001 to 0.01 µM | Dmax (B-RAF G466V): ≥ 70% | DC50 (B-RAF V600E): 0.05 to 0.5 µM | Dmax (B-RAF V600E): 35 to 70%

N#Cc1c(NS(=O)(=O)N2CC[C@@H](F)C2)ccc(F)c1Oc1ccc2ncn(-c3ccc(C4CCN(CC5CN(c6ccc7c(c6)CN([C@H]6CCC(=O)NC6=O)C7=O)C5)CC4)cc3)c(=O)c2c1 [Example 256, (3R)-N-(2-cyano-3-([3-(4-{1-[(1-{2-[(3S)-2,6-dioxopiperidin-3-yl]-1-oxo-2,3-dihydro-1H-isoindol-5-yl}azetidin-3-yl)methyl]piperidin-4-yl}phenyl)-4-oxo-3,4-dihydroquinazolin-6-yl]oxy}-4-fluorophenyl)-3-fluoropyrrolidine-1-sulfonamide]
DC50 (B-RAF G466V): 0.001 to 0.01 µM | Dmax (B-RAF G466V): ≥ 70% | DC50 (B-RAF V600E): 0.05 to 0.5 µM | Dmax (B-RAF V600E): 35 to 70%

N#Cc1c(NS(=O)(=O)N2CC[C@@H](F)C2)ccc(F)c1Oc1ccc2ncn(-c3ccc(C4CCN(CC5CN(c6ccc7c(c6Cl)CN([C@H]6CCC(=O)NC6=O)C7=O)C5)CC4)cc3)c(=O)c2c1 [Example 258, (3R)-N-(3-{[3-(4-{1-[(1-{4-chloro-2-[(3S)-2,6-dioxopiperidin-3-yl]-1-oxo-2,3-dihydro-1H-isoindol-5-yl}azetidin-3-yl)methyl]piperidin-4-yl}phenyl)-4-oxo-3,4-dihydroquinazolin-6-yl]oxy}-2-cyano-4-fluorophenyl)-3-fluoropyrrolidine-1-sulfonamide]
DC50 (B-RAF G466V): 0.001 to 0.01 µM | Dmax (B-RAF G466V): 35 to 70% | DC50 (B-RAF V600E): 0.05 to 0.5 µM | Dmax (B-RAF V600E): 35 to 70%

N#Cc1c(NS(=O)(=O)N2CC[C@@H](F)C2)ccc(F)c1Oc1ccc2ncn(-c3ccc(N4CCC(CN5CCC6(CCC(c7ccc8c(c7)CN([C@H]7CCC(=O)NC7=O)C8=O)CC6)CC5)CC4)cc3)c(=O)c2c1 [Example 262, (3R)-N-(2-cyano-3-{[3-(4-{4-[(9-{2-[(3S)-2,6-dioxopiperidin-3-yl]-1-oxo-2,3-dihydro-1H-isoindol-5-yl}-3-azaspiro[5.5]undecan-3-yl)methyl]piperidin-1-yl}phenyl)-4-oxo-3,4-dihydroquinazolin-6-yl]oxy}-4-fluorophenyl)-3-fluoropyrrolidine-1-sulfonamide]
DC50 (B-RAF G466V): 0.001 to 0.01 µM | Dmax (B-RAF G466V): ≥ 70% | DC50 (B-RAF V600E): 0.005 to 0.05 µM | Dmax (B-RAF V600E): ≥ 70%

N#Cc1c(NS(=O)(=O)N2CC[C@@H](F)C2)ccc(F)c1Oc1ccc2ncn(-c3ccc(C4CCN(CC5CC6(CCN(c7ccc8c(c7)CN([C@H]7CCC(=O)NC7=O)C8=O)CC6)C5)C4)cc3)c(=O)c2c1 (stereo partly drawn) [Example 263, (3R)-N-(2-cyano-3-{[3-(4-{1-[(7-{2-[(3S)-2,6-dioxopiperidin-3-yl]-1-oxo-2,3-dihydro-1H-isoindol-5-yl}-7-azaspiro[3.5]nonan-2-yl)methyl]pyrrolidin-3-yl}phenyl)-4-oxo-3,4-dihydroquinazolin-6-yl]oxy}-4-fluorophenyl)-3-fluoropyrrolidine-1-sulfonamide]
DC50 (B-RAF G466V): 0.001 to 0.01 µM | Dmax (B-RAF G466V): ≥ 70% | DC50 (B-RAF V600E): 0.05 to 0.5 µM | Dmax (B-RAF V600E): ≥ 70%

CCN(CC1CCN(c2ccc(-n3cnc4ccc(Oc5c(F)ccc(NS(=O)(=O)N6CC[C@@H](F)C6)c5C#N)cc4c3=O)cc2)CC1)[C@H]1C[C@@H](Oc2ccc3c(c2)CN([C@H]2CCC(=O)NC2=O)C3=O)C1 [Example 264, (3R)-N-{2-cyano-3-[(3-{4-[4-({ethyl[(1r,3r)-3-({2-[(3S)-2,6-dioxopiperidin-3-yl]-1-oxo-2,3-dihydro-1H-isoindol-5-yl}oxy)cyclobutyl]amino}methyl)piperidin-1-yl]phenyl}-4-oxo-3,4 dihydroquinazolin-6-yl)oxy]-4-fluorophenyl}-3-fluoropyrrolidine-1-sulfonamide]
DC50 (B-RAF G466V): 0.001 to 0.01 µM | Dmax (B-RAF G466V): 35 to 70% | DC50 (B-RAF V600E): 0.05 to 0.5 µM | Dmax (B-RAF V600E): 35 to 70%

N#Cc1c(NS(=O)(=O)N2CC[C@@H](F)C2)ccc(F)c1Oc1ccc2ncn(-c3ccc(N4CCN(CC5CCN(c6cc7c(c(OC(F)(F)F)c6)C(=O)N(C6CCC(=O)NC6=O)C7)CC5)CC4)cc3)c(=O)c2c1 (stereo partly drawn) [Example 265, (3R)-N-{2-cyano-3-[(3-{4-[4-({1-[2-(2,6-dioxopiperidin-3-yl)-1-oxo-7-(trifluoromethoxy)-2,3-dihydro-1H-isoindol-5-yl]piperidin-4-yl}methyl)piperazin-1-yl]phenyl}-4-oxo-3,4-dihydroquinazolin-6-yl)oxy]-4-fluorophenyl}-3-fluoropyrrolidine-1-sulfonamide]
DC50 (B-RAF G466V): 0.01 to 0.03 µM | Dmax (B-RAF G466V): 35 to 70% | DC50 (B-RAF V600E): 0.05 to 0.5 µM | Dmax (B-RAF V600E): 35 to 70%

N#Cc1c(NS(=O)(=O)N2CC[C@@H](F)C2)ccc(F)c1Oc1ccc2ncn(-c3ccc(N4CCN(CC5CCN(c6cc7c(c(C(F)(F)F)c6)C(=O)N(C6CCC(=O)NC6=O)C7)CC5)CC4)cc3)c(=O)c2c1 (stereo partly drawn) [Example 266, (3R)-N-{2-cyano-3-[(3-{4-[4-({1-[2-(2,6-dioxopiperidin-3-yl)-1-oxo-7-(trifluoromethyl)-2,3-dihydro-1H-isoindol-5-yl]piperidin-4-yl}methyl)piperazin-1-yl]phenyl}-4-oxo-3,4-dihydroquinazolin-6-yl)oxy]-4-fluorophenyl}-3-fluoropyrrolidine-1-sulfonamide]
DC50 (B-RAF G466V): > 0.03 µM | DC50 (B-RAF V600E): 0.05 to 0.5 µM | Dmax (B-RAF V600E): 35 to 70%

COCCN(CC1CCN(c2ccc(-n3cnc4ccc(Oc5c(F)ccc(NS(=O)(=O)N6CC[C@@H](F)C6)c5C#N)cc4c3=O)cc2)CC1)[C@H]1C[C@@H](Oc2ccc3c(c2)CN([C@H]2CCC(=O)NC2=O)C3=O)C1 [Example 267, (3R)-N-[2-cyano-4-fluoro-3-({3-[4-(4-{[(2-methoxyethyl)[(1r,3r)-3-({2-[(3S)-2,6-dioxopiperidin-3-yl]-1-oxo-2,3-dihydro-1H-isoindol-5-yl}oxy)cyclobutyl]amino]methyl}piperidin-1-yl)phenyl]-4-oxo-3,4-dihydroquinazolin-6-yl}oxy)phenyl]-3-fluoropyrrolidine-1-sulfonamide]
DC50 (B-RAF G466V): 0.01 to 0.03 µM | Dmax (B-RAF G466V): 35 to 70% | DC50 (B-RAF V600E): 0.05 to 0.5 µM | Dmax (B-RAF V600E): 35 to 70%
